Test results from patent US8076288B2 (priority 2004, dated 2011).

Key:
[1] = system: NIH/Swiss mice; conditions: for 60 min ED50: food intake, i.p.
[2] = molecular target: T1, amylin receptors (Rattus norvegicus, UniProt P32214); assay type: binding
T1 construct: nuclueus accumbens membranes prepared from rat brain; from tissue; host or cells: rat basal forebrain / nucleus accumbens membranes (male Sprague-Dawley rats)
T1 sequence (P32214 25-516): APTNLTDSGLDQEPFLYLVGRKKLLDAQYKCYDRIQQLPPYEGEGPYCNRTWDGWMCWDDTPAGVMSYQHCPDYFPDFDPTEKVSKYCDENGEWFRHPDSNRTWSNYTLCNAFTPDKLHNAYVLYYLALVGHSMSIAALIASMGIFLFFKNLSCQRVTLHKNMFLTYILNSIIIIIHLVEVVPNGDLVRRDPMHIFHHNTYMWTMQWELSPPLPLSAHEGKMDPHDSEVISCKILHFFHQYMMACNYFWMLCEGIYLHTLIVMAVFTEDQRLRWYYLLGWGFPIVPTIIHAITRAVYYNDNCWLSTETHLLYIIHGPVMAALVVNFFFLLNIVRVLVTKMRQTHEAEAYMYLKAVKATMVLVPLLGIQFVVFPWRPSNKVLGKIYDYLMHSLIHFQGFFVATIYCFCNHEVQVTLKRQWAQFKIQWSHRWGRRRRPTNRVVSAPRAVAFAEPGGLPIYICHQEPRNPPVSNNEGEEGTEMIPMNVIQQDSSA
T1 sequence (Q9JJ74 27-148 partner): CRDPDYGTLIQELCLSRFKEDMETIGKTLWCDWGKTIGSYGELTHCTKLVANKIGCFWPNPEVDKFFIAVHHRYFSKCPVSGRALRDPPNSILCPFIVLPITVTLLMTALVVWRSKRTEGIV

[3] = molecular target: T2, CT receptor (Rattus norvegicus, UniProt P32214); experiment: CT cyclase (C1A) assay; assay type: biochemical
T2 construct: host or cells: general text: 'CHO cells or T47D cells'
T2 sequence (P32214 25-479 isoform P32214-2 limits assumed): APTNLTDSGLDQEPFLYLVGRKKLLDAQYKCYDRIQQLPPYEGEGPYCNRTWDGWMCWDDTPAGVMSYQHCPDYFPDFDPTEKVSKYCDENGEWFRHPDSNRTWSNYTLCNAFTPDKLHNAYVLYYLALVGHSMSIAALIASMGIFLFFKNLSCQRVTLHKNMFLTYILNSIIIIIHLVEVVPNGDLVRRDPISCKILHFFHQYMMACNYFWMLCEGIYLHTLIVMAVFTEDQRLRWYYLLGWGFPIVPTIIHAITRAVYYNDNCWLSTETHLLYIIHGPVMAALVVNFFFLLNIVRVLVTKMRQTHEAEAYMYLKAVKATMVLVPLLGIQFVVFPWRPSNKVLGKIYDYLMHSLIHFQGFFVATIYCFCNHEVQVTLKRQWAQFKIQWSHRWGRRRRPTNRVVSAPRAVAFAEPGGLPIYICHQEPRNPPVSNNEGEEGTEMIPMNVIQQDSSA

[4] = molecular target: T3, CGRP receptors (Homo sapiens, UniProt O60894+Q16602); assay type: binding
T3 construct: SK-N-MC and L6 cells expressing endogenous CGRP receptors; endogenous in cells; host or cells: SK-N-MC cells (membranes)
T3 sequence (Q16602 23-461): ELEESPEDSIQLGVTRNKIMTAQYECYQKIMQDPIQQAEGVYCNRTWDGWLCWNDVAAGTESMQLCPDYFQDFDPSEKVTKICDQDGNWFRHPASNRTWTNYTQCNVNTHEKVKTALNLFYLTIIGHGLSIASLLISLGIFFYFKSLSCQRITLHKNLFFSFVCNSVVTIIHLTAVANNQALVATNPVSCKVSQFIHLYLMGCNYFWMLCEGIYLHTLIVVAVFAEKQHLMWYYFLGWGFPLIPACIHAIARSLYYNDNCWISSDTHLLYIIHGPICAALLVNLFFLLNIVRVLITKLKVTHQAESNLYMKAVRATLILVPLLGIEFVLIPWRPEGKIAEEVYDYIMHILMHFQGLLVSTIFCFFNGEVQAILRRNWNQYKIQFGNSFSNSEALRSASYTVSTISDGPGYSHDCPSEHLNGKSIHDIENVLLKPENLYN
T3 sequence (O60894 27-148 partner): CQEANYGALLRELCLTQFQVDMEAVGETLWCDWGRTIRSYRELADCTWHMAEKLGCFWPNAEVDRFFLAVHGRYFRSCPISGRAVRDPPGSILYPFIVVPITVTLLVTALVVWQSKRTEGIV

[5] = molecular target: T4, calcitonin receptor (Rattus norvegicus, UniProt P32214); assay type: binding
T4 construct: host or cells: general text: 'CHO cells or T47D cells'
T4 sequence (P32214 25-479 isoform P32214-2 limits assumed): T2 sequence (P32214 25-479 isoform P32214-2 limits assumed)

[6] = system: C57BL/6 mice (DIO); conditions: 250 nmol/kg/day

HGEGAFTSDLSKQLEEEAVRLFIEFLKN-NH2 [Compound 12, reference compound]
60 min ED50 [1]: 13 nmol/kg

KCNTATCATQRLANFLVRSSNNLGPVLPPTNVGSNTY-NH2 [Rat Amylin, reference compound]
60 min ED50 [1]: 9 nmol/kg

leptin
activity in food intake assay ([1]; mouse, in vivo): not active

[Ser117, dLeu119]leptin(116-122)-Amylin(1-7)-[^11,18Arg]sCT(8-27) -Amylin(33-37) [Compound 16]
anorexigenic effect in food intake assay ([1]; 1 mg/kg): anorexigenic | anorexigenic effect compared with rat amylin ([1]; rat amylin at 25 nmol/kg): superior to rat amylin | binding to amylin receptor [2]: bound | activation of the CT receptor (CIA assay) [3]: able to activate | binding to CGRP receptor [4]: some binding | binding to CT receptor [5]: bound

DY(SO3) MGWMDF-NH2 [CCK-8]
% change (body weight) in DIO assay at day 2 ([6]; day 2): ~−2.8% | body weight in DIO assay at day 7 ([6]; day 7): rebounded to the HF diet control level
